# Results reported in the supplement of paper PMC10307832.
# Compound: CC1(C)CCC(CN2CCN(c3ccc(C(=O)NS(=O)(=O)c4ccc(NCC5CCOCC5)c([N+](=O)[O-])c4)c(Oc4cnc5[nH]ccc5c4)c3)CC2)=C(c2ccc(Cl)cc2)C1 [Venetoclax] + Cc1nc(NC(=O)N2CCC[C@H]2C(N)=O)sc1-c1ccnc(C(C)(C)C(F)(F)F)c1 [Alpelisib] (partner 2 µM)
# Experiment: relative viability (nuclei count vs DMSO), 5 days (fraction); higher = more cells survive
# Conditions: first compound 0.01 µM
# In short: (§1)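 One day after seeding in 1536-well plates, lung cancer cell lines were dosed by pin tool. Dosing was either single-drug or a fixed anchor-drug dose plus five library-drug doses (not always all listed) in √10 steps. After 5 days, nuclei were stained in one fix-and-stain step and counted on 4× images, and relative viability is the nuclei count of treated wells over that of vehicle wells, given as the median of duplicate plates.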
row,Cell Line,relative viability
1,NCI-H460,0.539
2,LU99A,0.432
3,NCI-H2085,0.911
4,A-427,1.02
5,NCI-H520,0.893
6,NCI-H838,1.11
7,NCI-H1792,0.674
8,NCI-H596,0.516
9,NCI-H3122,0.874
10,NCI-H1395,0.989
11,201T,0.96
12,NCI-H1993,0.676
13,HOP-62,0.924
14,NCI-H1355,0.842
15,NCI-H2405,0.833
16,NCI-H1437,0.985
17,NCI-H661,0.597
18,CAL-12T,1.25

row,Cell Line,relative viability
1,H3255,0.702
2,NCI-H2347,1.04
3,NCI-H1975,0.673
4,NCI-H441,0.828
5,NCI-H1915,1.03
6,NCI-H2087,1.16
7,NCI-H1793,0.8
8,RERF-LC-KJ,0.769
9,EKVX,0.82
10,LCLC-103H,1.04
11,NCI-H1651,0.973
12,NCI-H1944,1.12
13,NCI-H2009,1.1
14,SW 1573,0.74
15,NCI-H358,0.769
16,NCI-H727,0.553
17,SK-LU-1,0.899

# Same assay, conditions: first compound 0.03162 µM
row,Cell Line,relative viability
1,NCI-H460,0.446
2,LU99A,0.545
3,NCI-H2085,0.925
4,A-427,1.09
5,NCI-H520,1.09
6,NCI-H838,0.953
7,NCI-H1792,0.669
8,NCI-H596,0.487
9,NCI-H3122,0.751
10,NCI-H1395,0.943
11,201T,1.01
12,NCI-H1993,0.696
13,HOP-62,1.21
14,NCI-H1355,0.782
15,NCI-H2405,0.751
16,NCI-H1437,0.989
17,NCI-H661,1.11
18,CAL-12T,1.08

row,Cell Line,relative viability
1,H3255,0.671
2,NCI-H2347,1.04
3,NCI-H1975,0.703
4,NCI-H441,0.705
5,NCI-H1915,1.05
6,NCI-H2087,1.11
7,NCI-H1793,0.737
8,RERF-LC-KJ,0.871
9,EKVX,1
10,LCLC-103H,0.983
11,NCI-H1651,0.949
12,NCI-H1944,0.836
13,NCI-H2009,1.15
14,SW 1573,0.754
15,NCI-H358,0.828
16,NCI-H727,0.608
17,SK-LU-1,1.15

# Same assay, conditions: first compound 0.1 µM
row,Cell Line,relative viability
1,NCI-H460,0.446
2,LU99A,0.548
3,NCI-H2085,0.884
4,A-427,1.13
5,NCI-H520,0.865
6,NCI-H838,1.04
7,NCI-H1792,0.542
8,NCI-H596,0.502
9,NCI-H3122,0.757
10,NCI-H1395,0.926
11,201T,1.07
12,NCI-H1993,0.665
13,HOP-62,1.08
14,NCI-H1355,0.784
15,NCI-H1437,1.05
16,NCI-H661,0.878
17,CAL-12T,1.01

row,Cell Line,relative viability
1,H3255,0.686
2,NCI-H2347,1.06
3,NCI-H1975,0.609
4,NCI-H441,0.821
5,NCI-H1915,1.02
6,NCI-H2087,0.808
7,NCI-H1793,0.595
8,RERF-LC-KJ,0.736
9,EKVX,0.871
10,LCLC-103H,1.04
11,NCI-H1651,0.959
12,NCI-H1944,0.779
13,NCI-H2009,1.16
14,SW 1573,0.632
15,NCI-H358,0.786
16,NCI-H727,0.525
17,SK-LU-1,0.855

# Same assay, conditions: first compound 0.3162 µM
row,Cell Line,relative viability
1,NCI-H460,0.472
2,LU99A,0.522
3,NCI-H2085,0.928
4,A-427,1.07
5,NCI-H520,0.796
6,NCI-H838,1.04
7,NCI-H1792,0.616
8,NCI-H596,0.544
9,NCI-H3122,0.731
10,NCI-H1395,0.983
11,201T,0.972
12,NCI-H1993,0.617
13,HOP-62,1.07
14,NCI-H1355,0.785
15,NCI-H2405,0.82
16,NCI-H1437,0.938
17,NCI-H661,0.569
18,CAL-12T,1.43

row,Cell Line,relative viability
1,H3255,0.891
2,NCI-H2347,1
3,NCI-H1975,0.628
4,NCI-H441,0.899
5,NCI-H1915,1.01
6,NCI-H2087,1.22
7,NCI-H1793,0.711
8,RERF-LC-KJ,0.91
9,EKVX,0.982
10,LCLC-103H,1
11,NCI-H1651,0.987
12,NCI-H1944,0.864
13,NCI-H2009,1.11
14,SW 1573,0.758
15,NCI-H358,0.903
16,NCI-H727,0.558
17,SK-LU-1,0.981

# Same assay, conditions: first compound 1 µM
row,Cell Line,relative viability
1,NCI-H460,0.447
2,LU99A,0.505
3,NCI-H2085,0.911
4,A-427,1.17
5,NCI-H520,0.847
6,NCI-H838,0.955
7,NCI-H1792,0.622
8,NCI-H596,0.397
9,NCI-H3122,0.884
10,NCI-H1395,0.961
11,201T,1.03
12,NCI-H1993,0.68
13,HOP-62,0.9
14,NCI-H1355,0.805
15,NCI-H2405,0.705
16,NCI-H1437,0.926
17,NCI-H661,0.48
18,CAL-12T,1.25

row,Cell Line,relative viability
1,H3255,0.686
2,NCI-H2347,1.04
3,NCI-H1975,0.543
4,NCI-H441,0.608
5,NCI-H1915,1.06
6,NCI-H2087,0.664
7,NCI-H1793,0.613
8,RERF-LC-KJ,0.779
9,EKVX,0.786
10,LCLC-103H,0.974
11,NCI-H1651,0.905
12,NCI-H1944,0.845
13,NCI-H2009,1.07
14,SW 1573,0.681
15,NCI-H358,0.839
16,NCI-H727,0.571
17,SK-LU-1,0.854

# Compound: Cn1cnc2c(F)c(Nc3ccc(Br)cc3Cl)c(C(=O)NOCCO)cc21 [Selumetinib] + CC(=O)Nc1cccc(-n2c(=O)n(C3CC3)c(=O)c3c(Nc4ccc(I)cc4F)n(C)c(=O)c(C)c32)c1 [Trametinib] (partner 0.02 µM)
# Experiment: as above
# Conditions: first compound 0.02 µM
# In short: as §1
row,Cell Line,relative viability
1,NCI-H460,0.115
2,LU99A,0.505
3,NCI-H2085,0.545
4,A-427,0.731
5,NCI-H520,0.826
6,NCI-H838,0.482
7,NCI-H1792,0.439
8,NCI-H596,0.743
9,NCI-H3122,0.202
10,NCI-H1395,1.09
11,201T,0.777
12,NCI-H1993,0.624
13,HOP-62,0.372
14,NCI-H1355,0.407
15,NCI-H2405,0.643
16,NCI-H1437,0.558
17,NCI-H661,0.585
18,CAL-12T,0.282

row,Cell Line,relative viability
1,H3255,0.586
2,NCI-H2347,0.264
3,NCI-H1975,0.332
4,NCI-H441,0.457
5,NCI-H1915,0.311
6,NCI-H2087,0.19
7,NCI-H1793,0.424
8,RERF-LC-KJ,0.911
9,EKVX,0.308
10,LCLC-103H,0.635
11,NCI-H1651,0.854
12,NCI-H1944,0.442
13,NCI-H2009,0.285
14,SW 1573,0.599
15,NCI-H358,0.125
16,NCI-H727,0.348
17,SK-LU-1,0.522

# Same assay, conditions: first compound 0.06325 µM
row,Cell Line,relative viability
1,NCI-H460,0.139
2,LU99A,0.649
3,NCI-H2085,0.62
4,A-427,0.781
5,NCI-H520,0.677
6,NCI-H838,0.52
7,NCI-H1792,0.521
8,NCI-H596,0.881
9,NCI-H3122,0.212
10,NCI-H1395,0.964
11,201T,0.698
12,NCI-H1993,0.604
13,HOP-62,0.358
14,NCI-H1355,0.459
15,NCI-H2405,0.638
16,NCI-H1437,0.546
17,NCI-H661,0.575
18,CAL-12T,0.343

row,Cell Line,relative viability
1,H3255,0.583
2,NCI-H2347,0.294
3,NCI-H1975,0.34
4,NCI-H441,0.429
5,NCI-H1915,0.302
6,NCI-H2087,0.171
7,NCI-H1793,0.414
8,RERF-LC-KJ,0.858
9,EKVX,0.325
10,LCLC-103H,0.707
11,NCI-H1651,0.85
12,NCI-H1944,0.398
13,NCI-H2009,0.273
14,SW 1573,0.56
15,NCI-H358,0.134
16,NCI-H727,0.367
17,SK-LU-1,0.442

# Same assay, conditions: first compound 0.2 µM
row,Cell Line,relative viability
1,NCI-H460,0.138
2,LU99A,0.512
3,NCI-H2085,0.398
4,A-427,0.812
5,NCI-H520,0.749
6,NCI-H838,0.529
7,NCI-H1792,0.452
8,NCI-H596,0.741
9,NCI-H3122,0.199
10,NCI-H1395,0.932
11,201T,0.723
12,NCI-H1993,0.527
13,HOP-62,0.404
14,NCI-H1355,0.464
15,NCI-H2405,0.669
16,NCI-H1437,0.516
17,NCI-H661,0.567
18,CAL-12T,0.285

row,Cell Line,relative viability
1,H3255,0.601
2,NCI-H2347,0.287
3,NCI-H1975,0.37
4,NCI-H441,0.573
5,NCI-H1915,0.288
6,NCI-H2087,0.231
7,NCI-H1793,0.443
8,RERF-LC-KJ,0.887
9,EKVX,0.344
10,LCLC-103H,0.66
11,NCI-H1651,0.835
12,NCI-H1944,0.406
13,NCI-H2009,0.29
14,SW 1573,0.522
15,NCI-H358,0.121
16,NCI-H727,0.421
17,SK-LU-1,0.424

# Same assay, conditions: first compound 0.6325 µM
row,Cell Line,relative viability
1,NCI-H460,0.104
2,LU99A,0.481
3,NCI-H2085,0.513
4,A-427,0.794
5,NCI-H520,0.776
6,NCI-H838,0.524
7,NCI-H1792,0.402
8,NCI-H596,0.607
9,NCI-H3122,0.266
10,NCI-H1395,1.05
11,201T,0.735
12,NCI-H1993,0.528
13,HOP-62,0.332
14,NCI-H1355,0.416
15,NCI-H2405,0.615
16,NCI-H1437,0.528
17,NCI-H661,0.537
18,CAL-12T,0.298
